# Assay results from PMC9229843, “Cancer-Related Somatic Mutations in Transmembrane Helices Alter Adenosine A1 Receptor Pharmacology” (Molecules, 2022).
# Substitutions are numbered along the chain they refer to.
# How the values were obtained:
# Experiment in all cases: yeast liquid growth assay
# Assay type in all cases: cell-based
# hA1AR H78L^3.23 = target: T1, hA1AR H78L^3.23 (Homo sapiens, UniProt P30542, H78L)
# T1 sequence (P30542 1-326 H78L): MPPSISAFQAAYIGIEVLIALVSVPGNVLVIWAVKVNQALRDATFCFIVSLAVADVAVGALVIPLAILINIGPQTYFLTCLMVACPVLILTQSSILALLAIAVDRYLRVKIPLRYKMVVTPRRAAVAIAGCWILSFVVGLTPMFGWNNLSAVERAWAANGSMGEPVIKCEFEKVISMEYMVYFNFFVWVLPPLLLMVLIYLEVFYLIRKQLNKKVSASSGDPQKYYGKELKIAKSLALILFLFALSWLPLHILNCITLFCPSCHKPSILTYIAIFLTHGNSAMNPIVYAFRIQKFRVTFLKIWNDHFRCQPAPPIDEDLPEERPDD
# Method: (§1) The plasmids, pDT-PGK_hA1AR, containing either wild type or mutated hA1AR were transformed into a MMY24 S. cerevisiae strain following the lithium acetate procedure.
# (§2) In order to characterize the mutant hA1ARs, liquid growth assays in 96-well plates were performed to obtain concentration–growth curves as previously described. […] The overnight cultures were then diluted to 40,000 cells/mL (OD600 ≈ 0.02) in a selective medium without uracil, leucine, and histidine (YNB-ULH). For the determination of constitutive activity, 50 μL of yeast cells and 150 μL of YNB-ULH medium containing different concentrations of 3-AT and 0.8 IU/mL ADA were then added to each well. To obtain concentration–growth curves, 2 μL of various concentrations of ligands, 50 μL of yeast cells, and 150 μL of YNB-ULH medium containing 7 mM 3-AT and 0.8 IU/mL ADA were then added to each well. After incubation at 30 °C for 35 h in a Genios plate reader (TECAN, Zürich, Switzerland) with shaking for 1 min at 300 rpm every 10 min, the optical density was measured at a wavelength of 595 nm, which represented the level of yeast cell growth.
# (§3) All experimental data were analyzed by GraphPad Prism 7.0 or 8.0 (GraphPad Software Inc., San Diego, CA, USA). Data from yeast liquid growth and [^35S]GTPγS binding assays were analyzed by non-linear regression using “log (agonist) vs. response (three parameters)” or “log (inhibitor) vs. response (three parameters)” to obtain potency (EC50), inhibitory potency (IC50), and efficacy (Emax or Imax) values. The radioligand displacement curves were obtained from a statistically preferred one-site or two-site binding model. pKi values were calculated from pIC50 values using the Cheng–Prusoff equation, where KD values were obtained from the homologous competition assays from this study and calculated by non-linear regression using “one site–homologous” [62].
# hA1AR P86L^3.31 = target: T2, hA1AR P86L^3.31 (Homo sapiens, UniProt P30542, P86L); details: result in words
# T2 construct: expressed in transfected cells; host or cells: S. cerevisiae MMY24
# T2 sequence (P30542 1-326 P86L): T1 sequence (P30542 1-326 H78L) with L78H, P86L
# Method: as §1, §2, §3
# hA1AR R122Q^4.40 = target: T3, hA1AR R122Q^4.40 (Homo sapiens, UniProt P30542, R122Q); details: ratio over basal activity of wild type hA1AR, 7 mM 3-AT
# T3 construct: expressed in transfected cells; host or cells: S. cerevisiae MMY24
# T3 sequence (P30542 1-326 R122Q): T1 sequence (P30542 1-326 H78L) with L78H, R122Q
# Method: as §1, §2, §3
# hA1AR T257P^6.58 = target: T4, hA1AR T257P^6.58 (Homo sapiens, UniProt P30542, T257P); details: result in words
# T4 construct: expressed in transfected cells; host or cells: S. cerevisiae MMY24
# T4 sequence (P30542 1-326 T257P): T1 sequence (P30542 1-326 H78L) with L78H, T257P
# Method: as §1, §2, §3
# wild type hA1AR = target: T5, wild type hA1AR (Homo sapiens, UniProt P30542); details: ratio over basal activity of wild type hA1AR, 7 mM 3-AT
# T5 sequence (P30542 1-326): T1 sequence (P30542 1-326 H78L) with L78H
# Method: as §1, §2, §3
structure (smiles),measurement,setting,value
"OC[C@H]1O[C@@H](n2cnc3c(NC4CCCC4)ncnc32)[C@H](O)[C@@H]1O [CPA, N^6-cyclopentyladenosine]",Emax,"hA1AR H78L^3.23; ratio over basal activity of wild type hA1AR, 7 mM 3-AT",4.15 ± 0.17
same,agonist-induced receptor activation,hA1AR H78L^3.23; result in words,further activation could not be obtained
same,agonist-induced receptor activation,hA1AR P86L^3.31,could not be activated
same,Emax,hA1AR R122Q^4.40,4.67 ± 0.22
same,agonist-induced receptor activation,hA1AR T257P^6.58,could not be activated
same,Emax,wild type hA1AR,4.83 ± 0.30
